# Patent publication US11173150B2, “Method for diagnosing, preventing, and treating neurological diseases” (United States Government As Represented By The Department …, priority 2010, dated 2021)
# Where two headings read alike, the source gives them in different places.
# Columns and labels:
# Desulfovibrio = assay: Antimicrobial susceptibility testing, CLSI serial two-fold plate dilution; type: cell-based; conditions: Desulfovibrio
# [1] = cited from earlier work
# tetanus toxin = tetanus toxin (Clostridium tetani, UniProt P04958); conditions: cited from earlier work
# tetanus toxin, sequence (P04958 whole entry, looked up): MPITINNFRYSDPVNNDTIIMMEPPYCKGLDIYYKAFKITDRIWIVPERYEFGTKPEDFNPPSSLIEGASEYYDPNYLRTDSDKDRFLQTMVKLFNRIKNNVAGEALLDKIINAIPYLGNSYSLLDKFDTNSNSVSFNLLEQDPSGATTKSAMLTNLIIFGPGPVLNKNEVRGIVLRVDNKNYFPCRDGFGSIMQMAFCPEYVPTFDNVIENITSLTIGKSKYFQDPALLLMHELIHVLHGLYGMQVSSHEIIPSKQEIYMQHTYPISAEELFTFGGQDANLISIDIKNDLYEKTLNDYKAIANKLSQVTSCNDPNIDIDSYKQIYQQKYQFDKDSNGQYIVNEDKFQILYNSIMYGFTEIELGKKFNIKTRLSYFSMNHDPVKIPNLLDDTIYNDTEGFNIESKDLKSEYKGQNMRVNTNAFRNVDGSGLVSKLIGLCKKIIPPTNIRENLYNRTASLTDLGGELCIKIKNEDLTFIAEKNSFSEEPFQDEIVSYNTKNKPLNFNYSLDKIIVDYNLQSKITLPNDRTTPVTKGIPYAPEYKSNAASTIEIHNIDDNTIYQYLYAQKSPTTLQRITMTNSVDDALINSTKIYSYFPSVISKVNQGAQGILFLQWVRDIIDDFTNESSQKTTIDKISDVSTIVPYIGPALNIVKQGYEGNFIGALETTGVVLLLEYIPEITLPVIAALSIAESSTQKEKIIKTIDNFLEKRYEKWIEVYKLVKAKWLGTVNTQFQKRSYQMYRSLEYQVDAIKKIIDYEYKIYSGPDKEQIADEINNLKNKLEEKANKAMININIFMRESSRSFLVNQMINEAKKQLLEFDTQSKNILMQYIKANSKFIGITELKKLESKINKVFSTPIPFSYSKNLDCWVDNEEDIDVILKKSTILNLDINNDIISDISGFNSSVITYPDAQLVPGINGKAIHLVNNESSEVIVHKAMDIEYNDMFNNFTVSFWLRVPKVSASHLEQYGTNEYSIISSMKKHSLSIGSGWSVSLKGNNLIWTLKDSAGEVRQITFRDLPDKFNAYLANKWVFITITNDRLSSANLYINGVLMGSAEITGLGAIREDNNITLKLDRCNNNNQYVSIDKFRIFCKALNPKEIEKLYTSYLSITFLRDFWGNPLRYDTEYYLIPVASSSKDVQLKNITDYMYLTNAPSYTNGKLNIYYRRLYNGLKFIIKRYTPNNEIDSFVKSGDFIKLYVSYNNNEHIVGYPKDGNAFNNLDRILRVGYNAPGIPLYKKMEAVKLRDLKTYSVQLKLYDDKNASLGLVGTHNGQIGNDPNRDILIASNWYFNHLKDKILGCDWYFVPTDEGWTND
# [2] = Desulfovibrio strain 8951, read-out: MIC
# [3] = Desulfovibrio strain 11232, read-out: MIC
# [4] = Desulfovibrio strain 11437, read-out: MIC
# [5] = Desulfovibrio strain 11789, read-out: MIC
# [6] = Desulfovibrio strain 11830, read-out: MIC
# [7] = Desulfovibrio strain 12379, read-out: MIC
# [8] = Desulfovibrio strain 13966, read-out: MIC
# [9] = Desulfovibrio type strain 29098^T, read-out: MIC
structure (smiles),measurement,setting,value
C[C@H]1[C@H](NC(=O)/C(=N\OC(C)(C)C(=O)O)c2csc(N)n2)C(=O)N1S(=O)(=O)O [Aztreonam],MIC,Desulfovibrio; Desulfovibrio strain 4019,512 µg/mL
same,MIC,Desulfovibrio; Desulfovibrio strain 8381,128 µg/mL
same,MIC,Desulfovibrio; [2],64 µg/mL
same,MIC,Desulfovibrio; Desulfovibrio strain 9070,512 µg/mL
same,MIC,Desulfovibrio; [3],64 µg/mL
same,MIC,Desulfovibrio; [4],64 µg/mL
same,MIC,Desulfovibrio; [5],32 µg/mL
same,MIC,Desulfovibrio; [6],64 µg/mL
same,MIC,Desulfovibrio; [7],16 µg/mL
same,MIC,Desulfovibrio; [8],24 µg/mL
same,MIC,Desulfovibrio; [9],32 µg/mL
same,Absorption when given by the oral route,[1]; oral,virtually unabsorbed
C[C@H](CS)C(=O)N1CCC[C@H]1C(=O)O [Captopril],Effect on tetanus toxin in vitro,tetanus toxin,inactivates
NC[C@H]1O[C@H](O[C@H]2[C@H](O)[C@@H](O[C@H]3O[C@H](CO)[C@@H](O)[C@H](N)[C@H]3O)[C@H](N)C[C@@H]2N)[C@H](O)[C@@H](O)[C@@H]1O [Kanamycin],MIC,"Desulfovibrio; Desulfovibrio strain 4019, read-out: MIC",512 µg/mL
same,MIC,"Desulfovibrio; Desulfovibrio strain 8236, read-out: MIC",512 µg/mL
same,MIC,"Desulfovibrio; Desulfovibrio strain 8381, read-out: MIC",256 µg/mL
same,MIC,"Desulfovibrio; Desulfovibrio strain 8907, read-out: MIC",256 µg/mL
same,MIC,"Desulfovibrio; Desulfovibrio strain 8933, read-out: MIC",512 µg/mL
same,MIC,Desulfovibrio; [2],512 µg/mL
same,MIC,"Desulfovibrio; Desulfovibrio strain 9070, read-out: MIC",512 µg/mL
same,MIC,"Desulfovibrio; Desulfovibrio strain 9120, read-out: MIC",256 µg/mL
same,MIC,"Desulfovibrio; Desulfovibrio strain 9706, read-out: MIC",256 µg/mL
same,MIC,"Desulfovibrio; Desulfovibrio strain 9976, read-out: MIC",128 µg/mL
same,MIC,"Desulfovibrio; Desulfovibrio strain 10831, read-out: MIC",256 µg/mL
same,MIC,"Desulfovibrio; Desulfovibrio strain 11081, read-out: MIC",512 µg/mL
same,MIC,"Desulfovibrio; Desulfovibrio strain 11094, read-out: MIC",512 µg/mL
same,MIC,Desulfovibrio; [3],256 µg/mL
same,MIC,"Desulfovibrio; Desulfovibrio strain 11346, read-out: MIC",512 µg/mL
same,MIC,"Desulfovibrio; Desulfovibrio strain 11378, read-out: MIC",512 µg/mL
same,MIC,Desulfovibrio; [4],128 µg/mL
same,MIC,"Desulfovibrio; Desulfovibrio strain 11568, read-out: MIC",512 µg/mL
same,MIC,"Desulfovibrio; Desulfovibrio strain 11623, read-out: MIC",256 µg/mL
same,MIC,"Desulfovibrio; Desulfovibrio strain 11717, read-out: MIC",512 µg/mL
same,MIC,Desulfovibrio; [5],256 µg/mL
same,MIC,Desulfovibrio; [6],128 µg/mL
same,MIC,"Desulfovibrio; Desulfovibrio strain 11949, read-out: MIC",128 µg/mL
same,MIC,Desulfovibrio; [7],512 µg/mL
same,MIC,Desulfovibrio; [8],512 µg/mL
same,MIC,"Desulfovibrio; Desulfovibrio type strain 7757^T, read-out: MIC",512 µg/mL
same,MIC,Desulfovibrio; [9],128 µg/mL
same,Absorption when given by the oral route,"[1]; in vivo, po",virtually unabsorbed
